In series [1] the target is T1, AtTT19 (Arabidopsis thaliana, UniProt Q9FE46).
T1 construct: gene GSTF12; expressed in E. coli from pET-28b-based plasmid, clarified lysate
T1 sequence (Q9FE46 1-214): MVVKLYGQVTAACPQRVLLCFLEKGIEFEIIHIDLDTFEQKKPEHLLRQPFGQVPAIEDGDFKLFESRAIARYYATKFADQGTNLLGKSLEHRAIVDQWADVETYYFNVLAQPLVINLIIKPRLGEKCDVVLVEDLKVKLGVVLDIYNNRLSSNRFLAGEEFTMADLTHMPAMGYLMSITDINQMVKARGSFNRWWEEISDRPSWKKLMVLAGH
Nature of the series: GSH-transferase assay, A340nm, clarified E. coli lysate. It counts as biochemical. The following applies: 1 mM CDNB, 1 mM GSH, 50 mM Tris pH 7.5, 30 °C.

Another series addresses T2, PhAN9 (Petunia x hybrida, UniProt O24261).
T2 construct: expressed in E. coli from pET-28b-based plasmid, clarified lysate
T2 sequence (O24261 1-232): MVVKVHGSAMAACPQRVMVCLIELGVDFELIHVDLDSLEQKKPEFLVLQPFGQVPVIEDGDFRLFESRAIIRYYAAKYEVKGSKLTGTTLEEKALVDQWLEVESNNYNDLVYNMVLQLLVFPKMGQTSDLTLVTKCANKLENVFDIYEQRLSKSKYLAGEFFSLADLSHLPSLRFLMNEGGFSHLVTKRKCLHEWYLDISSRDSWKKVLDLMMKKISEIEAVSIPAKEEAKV
Described as above. Type of series: biochemical. Conditions: 1 mM CDNB, 1 mM GSH, 50 mM Tris pH 7.5, 30 °C.

For another series, the target named is T3, AtGSTF2 (Arabidopsis thaliana, UniProt P46422).
T3 construct: gene GSTF2; expressed in E. coli from pET-28b-based plasmid, clarified lysate
T3 sequence (P46422 1-212): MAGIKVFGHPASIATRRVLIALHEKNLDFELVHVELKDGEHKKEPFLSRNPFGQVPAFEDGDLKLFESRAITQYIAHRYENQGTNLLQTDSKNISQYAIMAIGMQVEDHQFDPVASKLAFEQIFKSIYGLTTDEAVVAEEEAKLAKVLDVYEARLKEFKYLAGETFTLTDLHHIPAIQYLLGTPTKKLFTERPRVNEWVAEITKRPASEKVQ
Described as above. Type of series: biochemical. The following applies: 1 mM CDNB, 1 mM GSH, 50 mM Tris pH 7.5, 30 °C.

The target of the next series is T4, ZmBZ2 (Zea mays, UniProt P50472).
T4 construct: gene BZ2; expressed in E. coli from pET-28b-based plasmid, clarified lysate
T4 sequence (P50472 1-236): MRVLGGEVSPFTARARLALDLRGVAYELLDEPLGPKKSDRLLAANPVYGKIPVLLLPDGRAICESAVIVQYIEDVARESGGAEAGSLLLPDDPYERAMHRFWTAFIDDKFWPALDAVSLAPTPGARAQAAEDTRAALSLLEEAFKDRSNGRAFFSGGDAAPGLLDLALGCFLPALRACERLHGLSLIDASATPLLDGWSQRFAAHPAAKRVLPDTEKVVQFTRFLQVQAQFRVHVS
The description is as above. It counts as biochemical. The following applies: 1 mM CDNB, 1 mM GSH, 50 mM Tris pH 7.5, 30 °C.

The target of the next series is T5, VvGST2 (Vitis vinifera, UniProt A0T2X7).
T5 construct: gene GST2; expressed in E. coli from pET-28b-based plasmid, clarified lysate
T5 sequence (A0T2X7 1-214): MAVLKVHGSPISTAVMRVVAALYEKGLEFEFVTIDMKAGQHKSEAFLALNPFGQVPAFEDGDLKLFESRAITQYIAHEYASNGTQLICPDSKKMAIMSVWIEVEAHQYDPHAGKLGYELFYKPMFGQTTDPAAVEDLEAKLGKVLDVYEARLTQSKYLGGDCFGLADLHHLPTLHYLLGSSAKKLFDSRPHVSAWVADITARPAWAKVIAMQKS
The description is as above. It counts as biochemical. The following applies: 1 mM CDNB, 1 mM GSH, 50 mM Tris pH 7.5, 30 °C.

For series [2], the target named is T1, AtTT19. The series can be described thus: cyanidin formation by clarified E. coli lysate expressing the GST. It counts as biochemical. Conditions: 20 μM GSH, 100 mM MOPSO pH 6.2, 30 °C.
Another series has as its target T6, PtGSTF8 (Populus trichocarpa, UniProt B9MWW0).
T6 construct: gene POPTR_017G138800; full length, expressed in E. coli from pET-28b-based pANT35, GSTrap purified, apo (GSH removed with DTT)
T6 sequence (B9MWW0 1-214): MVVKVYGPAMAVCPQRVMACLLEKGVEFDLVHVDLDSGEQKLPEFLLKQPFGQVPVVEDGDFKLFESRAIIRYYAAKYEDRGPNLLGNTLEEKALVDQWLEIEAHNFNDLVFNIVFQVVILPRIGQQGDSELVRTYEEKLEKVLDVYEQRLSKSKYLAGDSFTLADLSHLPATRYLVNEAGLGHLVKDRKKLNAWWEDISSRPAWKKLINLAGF
The series can be described thus: X-ray crystal structure, […] Å. Conditions: ternary complex with GSH; H-site; substrate analogue. Type of series: binding.

Substrate in series [3]: Oc1cc(O)c2c(c1)O[C@H](c1ccc(O)c(O)c1)C(O)(O)[C@H]2O
Nature of the series: cyanidin formation at A580nm, 96-well plate, Michaelis-Menten. Conditions: GSH cofactor, 100 mM MOPSO pH 6.2, 30 °C, ascorbate, Fe(II), ultrafiltered substrate, apparent. It counts as biochemical, Populus trichocarpa.

The source of these data is publication PMC10593608, “The catalytic role of glutathione transferases in heterologous anthocyanin biosynthesis” (Nature Catalysis, 2023).

As for `O=[N+]([O-])c1ccc(Cl)c([N+](=O)[O-])c1` [compound 5, 1-chloro-2,4-dinitrobenzene], the “GSH-transferase assay, A340nm, clarified E. coli lysate” value was “all investigated GSTs were confirmed to be solubly and functionally produced” at AtTT19 [1]; “all investigated GSTs were confirmed to be solubly and functionally produced” at PhAN9; “all investigated GSTs were confirmed to be solubly and functionally produced” on AtGSTF2; “all investigated GSTs were confirmed to be solubly and functionally produced” on ZmBZ2; “all investigated GSTs were confirmed to be solubly and functionally produced” at VvGST2.

Turning to `Oc1cc(O)c2c(c1)O[C@H](c1ccc(O)c(O)c1)C(O)(O)[C@H]2O` [compound 4], the “cyanidin formation by clarified E. coli lysate expressing the GST” value on AtTT19 [2] was “arGSTs from maize (ZmBZ2), arabidopsis (AtTT19) and grapevine (VvGST4)”.

In the case of `Oc1cc(O)c2c(c1)O[C@@H](c1ccc(O)c(O)c1)[C@H](O)C2` [compound 12, (−)-catechin], the “X-ray crystal structure, 1.09 Å” value on PtGSTF8 was “crystal structure of PtGSTF8 as a ternary complex with GSH and the substrate analogue (−)-catechin”.

B1: PtGSTF8 (Populus trichocarpa) (protein)
chain: T6 sequence (B9MWW0 1-214)
notes: full length, expressed in E. coli from pET-28b-based pANT35, GSTrap purified, apo (GSH removed with DTT)
As for B1, in series [3], the Km is 147 ± 8 µM and the kcat worked out at 0.118 s⁻¹.
